Assay results taken from patent US11053205B2, “Phenazine derivatives as antimicrobial agents” (University of Florida Research Foundation, Incorporated, priority 2017, dated 2021).
Values after ≈ are worked out from the molar mass of the structure shown. Values joined by “and” are separate entries in the source; they are usually repeats but may differ in a detail not shown here. Equal entries are not always repeated. Where two headings read alike, the source gives them in different places. Marks after values point to notes of the source that are not given here.

Legend:
[1] = test system: MRSE 35984; experiment: MIC, broth microdilution (CLSI); conditions: for MRSE 35984 MIC: 16 to 18 hours at 37° C.
[2] = test system: MRSA BAA-1707; experiment: MIC, broth microdilution (CLSI); conditions: 0.10 = lowest concentration tested; for MRSA BAA-1707 MIC: 16 to 18 hours at 37° C.
[3] = test system: HeLa cells
[4] = test system: M. tuberculosis H37Ra (ATCC 25177); experiment: MIC assay for Mycobacterium tuberculosis; type: cell-based; conditions: read-out: MtB H37Ra MIC
Protocol: (§1) The culture was then diluted with fresh medium until an OD600 of 0.01 was reached. […] The final DMSO concentration was maintained at 0.5%. […] Three rows were reserved for each compound. […] OD600 absorbance was recorded using SPECTRAMAX M5 (Molecular Devices). Data obtained from three independent experiments were analyzed using Excel.
as §1, with “SpectraMax” for “SPECTRAMAX”

[5] = test system: VRE 700221; experiment: MIC, broth microdilution (CLSI); conditions: 16 to 18 hours at 37° C.
[6] = test system: human red blood cells
[7] = test system: MRSA-2; experiment: MIC, broth microdilution (CLSI); conditions: for MRSA-2 MIC: 16 to 18 hours at 37° C.
[8] = test system: MRSA BAA-1707 biofilms; experiment: Calgary Biofilm Device (CBD) assay, MBC/MBEC; conditions: for MRSA BAA-1707 MBC: planktonic killing; for MBC: Staphylococcus aureus, BAA1707|MRSA, read-out: MRSA BAA-1707 MBC, CBD, planktonic killing
[9] = test system: VRE 700221 biofilms; experiment: Calgary Biofilm Device (CBD) assay, MBC/MBEC; conditions: for VRE 700221 MBC: planktonic killing; for MBC: Enterococcus, VRE, read-out: VRE 700221 MBC
[10] = test system: MRSA BAA-1707; experiment: Metal(II)-cation co-treatment MIC assay; type: cell-based; conditions: Staphylococcus aureus
[11] = test system: MRSA-1; experiment: MIC, broth microdilution (CLSI)
[12] = test system: MRSE 35984 biofilms; experiment: Calgary Biofilm Device (CBD) assay, MBC/MBEC; conditions: for MRSE 35984 MBEC / MRSE 35984 MBC: CBD; for MRSE 35984 MBEC: biofilm eradication; for MRSE 35984 MBC: planktonic killing
[13] = test system: MRSA-2 biofilms; experiment: Calgary Biofilm Device (CBD) assay, MBC/MBEC; conditions: for MRSA-2 MBEC: biofilm eradication
[14] = test system: MRSA, MRSE, and VRE; experiment: MIC assays against MRSA, MRSE, and VRE (all strains); conditions: in words
[15] = test system: MRSA BAA-44 biofilms; experiment: Calgary Biofilm Device (CBD) assay, MBC/MBEC

In the case of `Cc1cc(C)c2nc3c(Br)ccc(O)c3nc2c1` [Compound 68A], the “MRSE 35984 MIC” value [1] is reported as 2.35^a μM, the “MRSA BAA-1707 MIC” value [2] is reported as 4.69^a μM and the IC50 [3] is reported as > 100 µM. For the same molecule, the MIC [4] was 50 µM (≈ 15.2 µg/mL) and the “VRE 700221 MIC” value [5] was 9.38^a μM.
`Oc1c(Br)cc(Br)c2nc3ccc(Cl)cc3nc12` [HP 1-22] was tested, and the MIC ([4]; Mycobacterium tuberculosis, 168 h, seven days at 37° C.) was 6.25 µM and 2.4 µg/mL and the “Hemolysis at 200 μM” value ([6]; human, 1 h, 200 μM, pH 7.2) was ≤1%.
For `Oc1c(Br)cc(Br)c2nc3cc(Oc4ccccc4)ccc3nc12` [Compound 63A], the “MRSE 35984 MIC” value [1] was 0.1^b μM, the “MRSA BAA-1707 MIC” value [2] was 0.075^a μM and the MIC [4] was 6.25 µM (≈ 2.79 µg/mL). For the same molecule, the “MRSA-2 MIC” value [7] was 0.39 µM, the “MRSA BAA-1707 MBC” value ([8]; CBD) was […] and the “Hemolysis at 200 μM” value [6] was ≤1%. The “VRE 700221 MBC” value ([9]; CBD) was 2.35 µM.
In the case of `c1ccc(CN(CCN(Cc2ccccn2)Cc2ccccn2)Cc2ccccn2)nc1` [TPEN, N,N,N′,N′-tetrakis(2-pyridylmethyl)ethane-1,2-diamine, reference compound], the MIC ([1]; Staphylococcus epidermidis, MRSE, read-out: MRSE 35984 MIC, 16 to 18 hours at 37° C.) is reported as 12.5 µM (≈ 5.31 µg/mL), the “MRSA BAA-1707 MIC” value [2] is reported as 50 ^ μM and the MIC ([2]; Staphylococcus aureus, BAA1707|MRSA, read-out: MRSA BAA-1707 MIC, 16 to 18 hours at 37° C.) is reported as 46.9 µM (≈ 19.9 µg/mL). For the same molecule, the MIC ([10]; copper(II) at 200 μM, read-out: MIC w/ Cu2+) was 500 µM, the MIC ([10]; iron(II) at 200 μM, read-out: MIC w/ Fe2+) was 125 µM and the MIC ([10]; magnesium(II) at 200 μM, read-out: MIC w/ Mg2+) was 62.5 µM. The MIC ([10]; no metal(II) cation added, read-out: MIC) was 46.9 µM, the MIC ([10]; zinc(II) at 200 μM, read-out: MIC w/ Zn2+) was 250 µM and the MIC ([7]; Staphylococcus aureus, MRSA, read-out: MRSA-2 MIC) was 50 µM (≈ 21.2 µg/mL). The “MRSA BAA-1707 MBC” value ([8]; CBD) was 250 µM, the MBC [8] was 375 µM (≈ 159 µg/mL) and the MIC ([11]; Staphylococcus aureus, MRSA, read-out: MRSA-1 MIC) was 75 µM (≈ 31.8 µg/mL). For the same molecule, the “Hemolysis at 200 μM” value ([6]; human, 1 h, 200 μM, pH 7.2) was ≤1% and the MBC [9] was 188 µM (≈ 79.8 µg/mL).
`Oc1c(Br)cc(Br)c2nc3c(O)c(Br)cc(Br)c3nc12` [HP 1-15] was tested, and the “MRSE 35984 MIC” value [1] was >50 µM, the “MRSA BAA-1707 MIC” value [2] was >50 µM and the “MRSA-2 MIC” value [7] was >50 µM. For the same molecule, the “MRSA-1 MIC” value ([11]; 16 to 18 hours at 37° C.) was >50 ^ μM and the “VRE 700221 MIC” value [5] was >50 µM.
For `O=C(O)CN(CCN(CC(=O)O)CC(=O)O)CC(=O)O` [EDTA, ethylenediaminetetraacetic acid, reference compound], the “MRSA BAA-1707 MBC” value ([8]; CBD) was >2000 />2000 μM, the MBC [8] was > 2000 µM and the “MRSE 35984 MBEC” value [12] was > 2000 µM. The “MRSE 35984 MBC” value [12] was 1000 µM, the MBC ([12]; Staphylococcus epidermidis, MRSE, read-out: MRSE 35984 MBC) was 1000 µM (≈ 292 µg/mL) and the “MRSA-2 MBEC” value ([13]; CBD) was 2000/>2000 μM. The MBC ([13]; Staphylococcus aureus, MRSA, read-out: MRSA-2 MBC) was 2000 µM (≈ 584 µg/mL) and the MBC [9] was > 2000 µM.
`Oc1cccc2nc3ccccc3nc12` [1-OHP, 1-hydroxyphenazine] showed an MIC [10] of 250 µM, an MIC ([10]; read-out: MIC w/ Cu2+) of 75 µM and an MIC ([10]; read-out: MIC w/ Fe2+) of 250 µM. The MIC ([10]; read-out: MIC w/ Mg2+) was 250 µM and the MIC ([10]; read-out: MIC w/ Zn2+) was > 500 µM.
`OC[C@H]1O[C@@H](Oc2c(Br)cc(Br)c3nc4ccccc4nc23)[C@H](O)[C@@H](O)[C@@H]1O` [79A] was tested, and the “activity in MIC assays” value [14] was “no activity in MIC assays”.
With `Oc1c(Br)cc(Br)c2nc3cc(Cl)ccc3nc12` [Compound 27] the “MRSA BAA-1707 MIC” value [2] was 0.1 µM, the MIC ([4]; seven days at 37° C.) was 3.13 µM (≈ 1.22 µg/mL) and the “MRSE 35984 MBEC” value [12] was 2.35 µM.
In the case of `Oc1ccc(Br)c2nc3cc(Cl)ccc3nc12` [Compound 69A], the “MRSE 35984 MIC” value [1] is reported as 18.8^a μM, the IC50 [3] is reported as > 100 µM and the MIC [4] is reported as 6.25 µM (≈ 1.93 µg/mL). For the same molecule, the “VRE 700221 MIC” value [5] was 25 µM.
For `CCc1ccc2nc3c(O)c(Br)cc(Br)c3nc2c1` [Compound 53A], the “MRSE 35984 MIC” value [1] was 0.1^b μM, the “MRSA BAA-1707 MIC” value [2] was 0.1^b μM and the MIC [4] was 6.25 µM (≈ 2.39 µg/mL). The “MRSA-2 MIC” value [7] was 0.59^a μM, the “MRSA BAA-1707 MBEC” value ([8]; CBD, biofilm eradication) was 150 µM and the “MRSA BAA-1707 MBC” value ([8]; CBD) was 75 µM. For the same molecule, the “MRSE 35984 MBEC” value [12] was 75 µM, the “MRSE 35984 MBC” value [12] was 50 µM and the “VRE 700221 MIC” value [5] was 2.35^a μM. The “Hemolysis at 200 μM” value [6] was 3.0%, the “MRSA-2 MBEC” value ([13]; CBD) was 150 µM and the “MRSA-2 MBC” value ([13]; CBD, planktonic killing) was 75 µM. The “MRSA BAA-44 MBEC” value ([15]; biofilm eradication) was 75^a/75^a μM and the “MRSA BAA-44 MBC” value ([15]; planktonic killing) was 75^a/75^a μM.
In the case of `Cc1ccc2nc3c(O)c(Br)cc(Br)c3nc2c1` [Compound 52A], the “MRSE 35984 MIC” value [1] is reported as 0.3^a μM, the MIC [4] is reported as 6.25 µM (≈ 2.3 µg/mL) and the “VRE 700221 MIC” value [5] is reported as 2.35^a μM. The “Hemolysis at 200 μM” value [6] was ≤1%, the “VRE 700221 MBEC” value ([9]; CBD, biofilm eradication) was 3.13 µM and the “VRE 700221 MBC” value ([9]; CBD) was 12.5 µM.
With `COCCOCCOCCOC(=O)OCOc1c(Br)cc(Br)c2nc3ccccc3nc12` [80A] the “activity in MIC assays” value [14] was “no activity in MIC assays”.
